According to patent US4758589A, “Tetraphosphine-coordinated gold(I) complexes” (SmithKline Beckman Corporation, priority 1987, dated 1988):
Where “and” joins values, the source holds several entries; their conditions need not be identical. Equal entries are not always repeated.

Legend:
[1] = system: M5076 reticulum cell sarcoma; assay: ip M5076 reticulum cell sarcoma tumor model; format: in vivo, mouse (B6D2F); details: mice bearing ip M5076 reticulum cell sarcoma; ip daily for 10 days
Method: (§1) Another chemosensitive tumor model is intraperitoneally (ip) implanted M5076 reticulum cell sarocma in mice. In this system B6D2F female mice are inoculated with 0.5 ml of a 10 percent (w:v) brei of M5076 prepared from pooled subcutaneous (sc) tumors excised at about 21 days from C57B1/6 donors. Drugs are administered ip. Daily treatment is begun 24 hours after implantation and is continued for ten days. The treatment regimen for M5076 is more prolonged than for P388 because of the slower growth rate and longer control survival time of the M5076 tumor. A drug is considered active in this tumor model if it produces ≥25% ILS.

[2] = maximally tolerated dose, mice, ip qD x 10 (Table B); format: in vivo, mouse (B6D2F1); details: B6D2F1 mice, ip qD x 10 regimen
Method: (§2) In this system, groups of eight B6D2F1 mice are inoculated ip with 0.5 ml of a 10% (w:v) brei of B15 melanoma prepared from pooled sc tumors excised at 14-21 days from […] donor mice. Daily treatment is begun 24 hours after tumor implantation and is continued daily for ten (10) days. The route of drug administration is ip. The mice are monitored daily for survival for sixty (60) days. Antitumor activity is assessed by prolongation of median survival time. An ILS of ≥25% indicates activity in this tumor model.
^(b) maximally tolerated dose for B6D2F1 mice on an ip qD .times

P388 leukemia = assay: in vivo ip P388 lymphocytic leukemia mouse model; design: species or system mouse (B6D2F1); details: mice bearing ip P388 leukemia; ip Days 1-5; figures separated by slashes are from separate experiments
Excerpt: P388 lymphocytic leukemia is currently the most widely used animal tumor model for screening for antitumor agents and for detailed evaluation of active compounds. This tumor system is widely accepted as an antitumor agent screening tool because it is sensitive to virtually all of the clinically active antineoplastic agents; quantitative and reproducible; amenable for large-scale screening; and predictive for activity in other animal tumor models.
10^6 P388 leukemia cells are inoculated ip in B6D2F1 mice. Twenty-four hours later, if the tumor inoculum proves to be free of bacterial contamination (as determined by 24 hours incubation in thioglycollate broth), animals are randomized into groups of 6 and housed in shoebox cages. The compound to be evaluated is dissolved in a minimal volume of N,N-dimethylacetamide (DMA). An equal volume of saline is added; if the drug comes out of solution an equal volume of polyethoxylated castor oil is added and then saline qs to a concentration such that the desired dose is delivered in 0.5 ml. The final concentration of DMA and polyethoxylated castor oil is 10 percent. Dilutions for lower doses are made with saline so there is a decreasing proportion of organic solvents in the vehicle with decreasing dosage. This vehicle provides a soluble formulation. […] Animals are monitored daily for mortality and experiments are terminated after 45 days. […]

[3] = maximally tolerated dose, mice, ip qD x 10 (Table C); format: in vivo, mouse (B6D2F female); details: B6D2F female mice, ip qD x 10 regimen
Method: as §1
^(b) maximally tolerated dose for B6D2F female mice on ip qD ×

B16 melanoma = assay: in vivo ip B16 melanoma assay; design: species or system mouse (B6D2F1); details: mice bearing ip B16 melanoma; ip daily for 10 days
Method: as §2

[4] = Struck et al., J. Med. Chem., 9, 414-417 (1966); cited from earlier work

[Cl][Au].c1ccc(P(CCP(CCP(c2ccccc2)c2ccccc2)c2ccccc2)CCP(c2ccccc2)c2ccccc2)cc1 (stereo not drawn) [Compound 1, Chloro[1,1,4,7,10,10-hexaphenyl-1,4,7,10-tetraphosphodecane-P^1, P^4, P^7, P^10]gold(I)]
ILS (MAX): maximum increase in lifespan [1]: 38%
MTD (maximally tolerated dose) [2]: 2 mg/kg
ILS (max): maximum increase in lifespan (P388 leukemia): 40% and 65%
MTD (maximally tolerated dose) [3]: 2 mg/kg
ILS: maximum increase in lifespan (B16 melanoma): 37%

c1ccc(P(CCP(c2ccccc2)c2ccccc2)c2ccccc2)cc1 [1,2-bis(diphenylphosphino)ethane]
cytotoxic activity [4]: cytotoxic activity
